According to paper PMC3298469, “A selective and potent CXCR3 antagonist SCH 546738 attenuates the development of autoimmune diseases and delays graft rejection” (BMC Immunology, 2012):

Columns and labels:
Assay in all cases: GPCR counterscreen binding assay
Histamine H1 = Histamine H1 (Homo sapiens, UniProt P35367)
Description: (§1) SCH 546738 was tested at concentrations of 1-10 μM against a panel of 49 GPCR binding assays. Most of the assays were not affected by SCH 546738 (Table 2). […] In addition, SCH 546738 has a favourable pharmacokinetic profile in rodents. […] Therefore, SCH 546738 is suitable for in vivo preclinical studies.

Adrenergic α2A = Adrenergic α2A (Homo sapiens, UniProt P08913)
Adrenergic α2A, sequence (P08913 whole entry): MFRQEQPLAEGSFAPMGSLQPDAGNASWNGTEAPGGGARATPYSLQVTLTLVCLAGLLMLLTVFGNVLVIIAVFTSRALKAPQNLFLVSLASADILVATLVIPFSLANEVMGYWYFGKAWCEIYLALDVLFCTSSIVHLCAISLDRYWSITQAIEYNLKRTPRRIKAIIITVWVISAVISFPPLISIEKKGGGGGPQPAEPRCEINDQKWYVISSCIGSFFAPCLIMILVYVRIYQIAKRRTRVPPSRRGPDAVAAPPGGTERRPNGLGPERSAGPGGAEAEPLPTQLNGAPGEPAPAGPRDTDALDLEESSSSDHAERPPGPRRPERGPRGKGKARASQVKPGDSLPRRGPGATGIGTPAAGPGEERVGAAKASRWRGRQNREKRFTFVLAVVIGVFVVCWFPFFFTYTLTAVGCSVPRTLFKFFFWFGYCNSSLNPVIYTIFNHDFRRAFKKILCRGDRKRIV
Description: as §1

Histamine H3 = Histamine H3 (Homo sapiens, UniProt Q9Y5N1)
Description: as §1

MRGX2 = MRGX2 (Homo sapiens, UniProt Q96LB1)
Description: as §1

Adrenergic α1B = Adrenergic α1B (Homo sapiens, UniProt P35368)
Description: as §1

Purinergic P2Y1_2 = conditions: @ 4 μM
Description: as §1

Muscarinic M1 = Muscarinic M1 (Homo sapiens, UniProt P11229)
Description: as §1

Muscarinic M3 = Muscarinic M3 (Homo sapiens, UniProt P20309)
Muscarinic M3, sequence (P20309 whole entry): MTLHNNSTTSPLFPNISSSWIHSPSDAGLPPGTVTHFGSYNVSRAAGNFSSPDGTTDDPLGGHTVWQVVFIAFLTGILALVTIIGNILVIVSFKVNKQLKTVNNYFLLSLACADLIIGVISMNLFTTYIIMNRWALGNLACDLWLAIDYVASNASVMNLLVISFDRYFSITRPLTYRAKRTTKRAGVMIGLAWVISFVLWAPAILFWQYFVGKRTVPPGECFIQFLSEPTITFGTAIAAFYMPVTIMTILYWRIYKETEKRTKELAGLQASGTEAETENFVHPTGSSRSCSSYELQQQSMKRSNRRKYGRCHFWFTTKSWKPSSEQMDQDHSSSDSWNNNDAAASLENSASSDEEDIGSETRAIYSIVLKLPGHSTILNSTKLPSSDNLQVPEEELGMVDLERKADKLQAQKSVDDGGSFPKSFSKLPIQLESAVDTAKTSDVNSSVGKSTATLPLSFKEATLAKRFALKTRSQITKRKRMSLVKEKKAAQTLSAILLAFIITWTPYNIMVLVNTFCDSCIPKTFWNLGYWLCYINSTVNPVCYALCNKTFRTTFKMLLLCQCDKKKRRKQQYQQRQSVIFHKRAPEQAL
Description: as §1

Prokineticin PKR1 = Prokineticin PKR1 (Homo sapiens, UniProt Q8TCW9)
Description: as §1

Vasopressin (V2) = Vasopressin (V2) (Homo sapiens, UniProt P30518)
Description: as §1

Vasopressin (V1b) = Vasopressin (V1b) (Homo sapiens, UniProt P47901)
Description: as §1

CCR7 = CCR7 (Homo sapiens, UniProt P32248)
Description: as §1

Adrenergic α2C = Adrenergic α2C (Homo sapiens, UniProt P18825)
Adrenergic α2C, sequence (P18825 whole entry): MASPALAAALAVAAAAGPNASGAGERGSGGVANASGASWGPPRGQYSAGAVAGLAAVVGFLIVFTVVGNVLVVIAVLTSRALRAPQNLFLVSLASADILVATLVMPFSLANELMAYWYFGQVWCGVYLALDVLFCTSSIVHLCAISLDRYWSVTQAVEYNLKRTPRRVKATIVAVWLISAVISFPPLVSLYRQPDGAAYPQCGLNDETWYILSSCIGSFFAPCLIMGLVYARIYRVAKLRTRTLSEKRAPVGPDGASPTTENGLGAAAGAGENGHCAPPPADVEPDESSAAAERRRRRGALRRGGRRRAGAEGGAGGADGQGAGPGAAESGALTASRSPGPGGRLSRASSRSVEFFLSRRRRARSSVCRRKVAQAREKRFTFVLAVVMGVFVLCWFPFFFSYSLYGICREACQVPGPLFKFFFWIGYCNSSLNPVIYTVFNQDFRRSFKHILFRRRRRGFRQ
Description: as §1

Prokineticin PKR2 = Prokineticin PKR2 (Homo sapiens, UniProt Q8NFJ6)
Description: as §1

Serotonergic 5HT1A = Serotonergic 5HT1A (Homo sapiens, UniProt P08908)
Description: as §1

Mu opiate = Mu opiate (Homo sapiens, UniProt P35372)
Description: as §1

VR1N = conditions: @ 4 μM
Description: as §1

Neuropeptide Y (Y2) = Neuropeptide Y (Y2) (Homo sapiens, UniProt P49146)
Description: as §1

Neurokinin NK2 = Neurokinin NK2 (Homo sapiens, UniProt P21452)
Description: as §1

Vasopressin (V1a) = Vasopressin (V1a) (Homo sapiens, UniProt P37288)
Description: as §1

Dopamine D1 = Dopamine D1 (Homo sapiens, UniProt P21728)
Dopamine D1, sequence (P21728 whole entry): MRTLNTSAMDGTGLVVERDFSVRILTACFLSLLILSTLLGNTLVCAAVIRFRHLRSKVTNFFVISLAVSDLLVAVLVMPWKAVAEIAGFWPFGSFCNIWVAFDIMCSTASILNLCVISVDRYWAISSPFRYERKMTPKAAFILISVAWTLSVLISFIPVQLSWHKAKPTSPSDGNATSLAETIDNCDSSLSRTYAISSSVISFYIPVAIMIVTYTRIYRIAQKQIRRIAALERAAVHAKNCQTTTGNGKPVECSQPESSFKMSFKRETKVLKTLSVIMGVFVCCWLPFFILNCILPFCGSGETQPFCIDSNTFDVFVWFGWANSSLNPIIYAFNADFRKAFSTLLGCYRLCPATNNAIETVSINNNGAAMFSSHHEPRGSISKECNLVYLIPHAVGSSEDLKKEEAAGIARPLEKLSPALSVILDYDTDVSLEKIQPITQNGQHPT
Description: as §1

Dopamine D3 = Dopamine D3 (Homo sapiens, UniProt P35462)
Dopamine D3, sequence (P35462 whole entry): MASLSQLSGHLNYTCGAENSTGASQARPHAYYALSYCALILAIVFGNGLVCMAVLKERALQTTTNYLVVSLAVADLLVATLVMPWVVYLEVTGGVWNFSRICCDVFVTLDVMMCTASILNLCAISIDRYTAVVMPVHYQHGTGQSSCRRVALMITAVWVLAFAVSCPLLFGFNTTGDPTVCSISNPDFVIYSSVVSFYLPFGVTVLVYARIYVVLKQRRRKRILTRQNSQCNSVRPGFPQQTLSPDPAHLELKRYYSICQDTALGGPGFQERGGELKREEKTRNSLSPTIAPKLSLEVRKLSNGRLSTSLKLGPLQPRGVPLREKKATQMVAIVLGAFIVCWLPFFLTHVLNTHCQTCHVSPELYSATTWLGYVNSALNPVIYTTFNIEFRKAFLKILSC
Description: as §1

CXCR2 = CXCR2 (Homo sapiens, UniProt P25025)
Description: as §1

Dopamine D2 = Dopamine D2 (Homo sapiens, UniProt P14416)
Description: as §1

Muscarinic M2 = Muscarinic M2 (Homo sapiens, UniProt P08172)
Muscarinic M2, sequence (P08172 whole entry): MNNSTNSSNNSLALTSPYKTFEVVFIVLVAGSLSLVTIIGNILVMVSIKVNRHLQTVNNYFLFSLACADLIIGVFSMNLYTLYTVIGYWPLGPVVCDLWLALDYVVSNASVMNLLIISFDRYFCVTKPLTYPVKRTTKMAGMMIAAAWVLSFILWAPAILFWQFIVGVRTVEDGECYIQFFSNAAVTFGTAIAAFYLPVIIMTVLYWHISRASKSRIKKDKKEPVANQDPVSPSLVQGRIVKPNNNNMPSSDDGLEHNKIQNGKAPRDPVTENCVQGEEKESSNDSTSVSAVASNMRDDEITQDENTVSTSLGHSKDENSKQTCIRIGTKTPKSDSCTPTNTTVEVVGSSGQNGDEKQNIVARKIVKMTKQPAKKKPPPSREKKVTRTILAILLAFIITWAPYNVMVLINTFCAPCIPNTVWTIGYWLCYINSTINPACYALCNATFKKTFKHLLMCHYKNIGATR
Description: as §1

CCR3 = CCR3 (Homo sapiens, UniProt P51677)
CCR3, sequence (P51677 whole entry): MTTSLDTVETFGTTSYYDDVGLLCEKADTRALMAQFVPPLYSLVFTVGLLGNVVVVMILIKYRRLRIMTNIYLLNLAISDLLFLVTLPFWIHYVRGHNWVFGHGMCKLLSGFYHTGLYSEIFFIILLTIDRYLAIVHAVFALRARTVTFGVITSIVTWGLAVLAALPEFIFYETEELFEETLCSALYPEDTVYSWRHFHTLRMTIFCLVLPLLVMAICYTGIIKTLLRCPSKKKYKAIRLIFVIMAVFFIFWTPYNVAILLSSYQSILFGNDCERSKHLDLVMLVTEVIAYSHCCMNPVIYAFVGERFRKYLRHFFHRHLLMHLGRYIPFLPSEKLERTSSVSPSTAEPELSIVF
Description: as §1

Kappa opiate = Kappa opiate (Homo sapiens, UniProt P41145)
Kappa opiate, sequence (P41145 whole entry): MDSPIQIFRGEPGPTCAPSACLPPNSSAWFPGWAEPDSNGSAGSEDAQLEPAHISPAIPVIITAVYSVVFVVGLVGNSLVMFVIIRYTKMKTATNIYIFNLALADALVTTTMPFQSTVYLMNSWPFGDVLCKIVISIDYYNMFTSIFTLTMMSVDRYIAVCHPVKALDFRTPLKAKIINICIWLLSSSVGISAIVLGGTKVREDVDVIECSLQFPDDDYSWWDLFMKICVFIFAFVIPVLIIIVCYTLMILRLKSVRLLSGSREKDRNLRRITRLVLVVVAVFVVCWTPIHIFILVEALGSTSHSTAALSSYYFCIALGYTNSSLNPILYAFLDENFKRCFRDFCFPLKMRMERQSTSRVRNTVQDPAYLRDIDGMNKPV
Description: as §1

CCR5 = CCR5 (Homo sapiens, UniProt P51681)
CCR5, sequence (P51681 whole entry): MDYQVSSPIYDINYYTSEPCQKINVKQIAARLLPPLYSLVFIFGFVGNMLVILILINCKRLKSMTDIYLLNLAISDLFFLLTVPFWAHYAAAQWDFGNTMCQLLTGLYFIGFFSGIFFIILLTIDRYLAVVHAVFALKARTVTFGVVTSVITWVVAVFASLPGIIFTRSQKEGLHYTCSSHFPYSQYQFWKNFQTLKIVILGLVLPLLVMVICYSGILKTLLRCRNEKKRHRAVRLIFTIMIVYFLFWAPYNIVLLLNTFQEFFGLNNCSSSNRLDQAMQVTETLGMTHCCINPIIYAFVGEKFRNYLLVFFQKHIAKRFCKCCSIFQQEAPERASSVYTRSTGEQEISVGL
Description: as §1

MRGX1 = MRGX1 (Homo sapiens, UniProt Q96LB2)
Description: as §1

Neurokinin NK1 = Neurokinin NK1 (Homo sapiens, UniProt P25103)
Neurokinin NK1, sequence (P25103 whole entry): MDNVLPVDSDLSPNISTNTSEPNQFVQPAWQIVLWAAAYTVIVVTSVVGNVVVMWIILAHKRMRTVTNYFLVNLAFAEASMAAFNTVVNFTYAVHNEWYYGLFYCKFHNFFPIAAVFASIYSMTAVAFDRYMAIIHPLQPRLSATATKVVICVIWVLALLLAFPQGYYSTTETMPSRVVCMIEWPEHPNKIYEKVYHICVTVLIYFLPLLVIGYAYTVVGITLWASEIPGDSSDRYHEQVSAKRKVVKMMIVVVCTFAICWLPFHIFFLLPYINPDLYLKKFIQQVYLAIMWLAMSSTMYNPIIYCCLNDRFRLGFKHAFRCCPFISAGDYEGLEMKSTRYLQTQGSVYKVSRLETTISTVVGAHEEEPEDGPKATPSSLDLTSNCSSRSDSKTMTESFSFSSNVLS
Description: as §1

Neuropeptide Y (Y1) = Neuropeptide Y (Y1) (Homo sapiens, UniProt P25929)
Neuropeptide Y (Y1), sequence (P25929 whole entry): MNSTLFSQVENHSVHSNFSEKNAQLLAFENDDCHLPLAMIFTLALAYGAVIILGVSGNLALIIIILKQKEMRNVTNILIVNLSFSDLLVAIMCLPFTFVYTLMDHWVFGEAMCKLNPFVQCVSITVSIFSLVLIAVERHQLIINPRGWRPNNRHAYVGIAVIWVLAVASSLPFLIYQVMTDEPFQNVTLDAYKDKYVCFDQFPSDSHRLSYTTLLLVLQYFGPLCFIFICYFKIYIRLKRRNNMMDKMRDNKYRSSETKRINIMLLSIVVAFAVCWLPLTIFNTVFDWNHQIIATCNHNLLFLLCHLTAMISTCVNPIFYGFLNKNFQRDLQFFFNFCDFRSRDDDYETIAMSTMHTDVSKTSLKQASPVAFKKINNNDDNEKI
Description: as §1

`CC[C@H]1CN(c2nc(N)c(C(N)=O)nc2Cl)CCN1C1CCN(Cc2ccc(Cl)cc2)CC1` [SCH 546738] showed an inhibition at 2 µM (Histamine H1) of 46%, an inhibition at 1 µM (Adrenergic α2A) of 45% and an inhibition at 2 µM (Histamine H3) of 29%. The inhibition at 4 µM (MRGX2) was 25%, the inhibition at 2 µM (Adrenergic α1B) was 25% and the “Inhibition (%)” value (Purinergic P2Y1_2) was 10% @ 4 μM. For the same molecule, the inhibition at 4 µM (Muscarinic M1) was 22%, the inhibition at 4 µM (Muscarinic M3) was 27% and the inhibition at 4 µM (Prokineticin PKR1) was -1%. It also gave an inhibition at 4 µM (Vasopressin (V2)) of 18%, an inhibition at 4 µM (Vasopressin (V1b)) of 15% and an inhibition at 10 µM (CCR7) of 0%. It also gave an inhibition at 1 µM (Adrenergic α2C) of 76%, an inhibition at 4 µM (Prokineticin PKR2) of -5% and an inhibition at 4 µM (Serotonergic 5HT1A) of 20%. For the same molecule, the inhibition at 4 µM (Mu opiate) was 22%, the “Inhibition (%)” value (VR1N) was 0% @ 4 μM and the inhibition at 4 µM (Neuropeptide Y (Y2)) was -9%. It also gave an inhibition at 2 µM (Neurokinin NK2) of 0%, an inhibition at 4 µM (Vasopressin (V1a)) of 7% and an inhibition at 4 µM (Dopamine D1) of 6%. It also gave an inhibition at 10 µM (Dopamine D3) of 18%, an inhibition at 10 µM (CXCR2) of 20% and an inhibition at 4 µM (Dopamine D2) of 41%. For the same molecule, the inhibition at 4 µM (Muscarinic M2) was 52%, the inhibition at 10 µM (CCR3) was 17% and the inhibition at 4 µM (Kappa opiate) was 7%. It also gave an inhibition at 10 µM (CCR5) of 10%, an inhibition at 4 µM (MRGX1) of 1% and an inhibition at 2 µM (Neurokinin NK1) of 15%. The inhibition at 4 µM (Neuropeptide Y (Y1)) was 4%.
